Two molecules from ChEMBL document CHEMBL4732083, “Synthesis and anti-inflammatory activity of saponin derivatives of δ-oleanolic acid” (Eur J Med Chem, 2021) can be followed below.

The term Cmax denotes the highest concentration seen after dosing. A word on the half-life: it is the time needed for the level to fall by half in the phase considered. What is called bioavailability is dose-corrected exposure relative to a reference, in per cent. Read a high bioavailability as much systemic uptake. By Tmax is commonly meant the time at which the peak concentration occurs. The term AUC(0-inf) denotes the area under the concentration-time curve extrapolated to infinity. Usually AUC(0-t) stands for exposure summed from dosing to a finite time, without extrapolation to infinity. A higher AUC(0-t) goes with high exposure.

Data set [1] addresses T1, AMP-activated protein kinase, AMPK (Homo sapiens) (UniProt P54646+O43741+P54619+Q9UGJ0+Q9Y478+Q13131+Q9UGI9). The experiment in a line: Activation of AMPK in human HepG2 cells assessed as increase in acetyl-CoA carboxylase phosphorylation at Ser79 residue at 10 uM measured by Western blot analysis. The class given is cell-based. As to conditions: filed as activator, time hrs <=12, TDE = time-dependent effect. A general note: In western blotting, separated proteins are transferred to a membrane and probed.

The target of data set [2] is T1, AMP-activated protein kinase, AMPK (Homo sapiens). Put plainly: Activation of AMPK in human Huh-7 cells assessed as increase in AMPK phosphorylation at Thr172 measured upto 12 hrs by Western blot analysis. The class given is cell-based. As to conditions: filed as activator, dose microM <=20, time hrs <=12.
Data set [3] has the same target. The experiment in a line: Activation of AMPK in human HepG2 cells assessed as increase in AMPK phosphorylation at Thr172 residue at 10 uM measured by Western blot analysis. As to conditions: filed as activator, time hrs <=12, TDE = time-dependent effect. The format is cell-based.
Data set [4] has the same target. The experiment in a line: Activation of AMPK in human Huh-7 cells assessed as increase in AMPK phosphorylation at Thr172 residue at 10 uM measured by Western blot analysis. The format is cell-based. As to conditions: filed as activator, time hrs <=12, TDE = time-dependent effect.
Data set [5] has the same target. Put plainly: Activation of AMPK in human HepG2 cells assessed as increase in acetyl-CoA carboxylase phosphorylation at Ser79 measured upto 12 hrs by Western blot analysis. The format is cell-based. As to conditions: filed as activator, dose microM <=20, time hrs <=12.
For data set [6] the target is unchanged. The experiment in a line: Activation of AMPK in human Huh-7 cells assessed as increase in acetyl-CoA carboxylase phosphorylation at Ser79 measured upto 12 hrs by Western blot analysis. The class given is cell-based. As to conditions: filed as activator, dose microM <=20, time hrs <=12.
The test system of data set [7] is THP-1. Put plainly: Cytotoxicity against human THP-1 cells assessed as reduction in cell viability at 1 to 10 uM. The note with it: thp-1, 10 µM. The class given is cell-based.
Data set [8] concerns the target T1, AMP-activated protein kinase, AMPK (Homo sapiens). The experiment in a line: Activation of AMPK in human Huh-7 cells assessed as increase in AMPK phosphorylation at Thr172 residue at 10 uM measured after 12 hrs by Western blot analysis. The class given is cell-based. The note with it: filed as activator.
The target is the same in data set [9]. The experiment in a line: Activation of AMPK in human Huh-7 cells assessed as increase in acetyl-CoA carboxylase phosphorylation at Ser79 residue at 10 uM measured by Western blot analysis. The format is cell-based. As to conditions: filed as activator, time hrs <=12, TDE = time-dependent effect.
Data set [10] has the same target. The experiment in a line: Activation of AMPK in human HepG2 cells assessed as increase in AMPK phosphorylation measured upto 12 hrs by Western blot analysis. The note with it: filed as activator, dose microM <=20, time hrs <=12. The format is cell-based.
Data set [11] deals with Mus musculus. The experiment in a line: Hepatoprotective activity in LPS/D-GalN-induced fulminant hepatic failure BALB/c mouse model assessed as changes in liver histology at 200 mg/kg, IG once daily for 3 days by H/E staining based analysis. The format is functional, organism-based. As to conditions: time 3.0 day.
Data set [12] in a line: Cmax in BALB/c mouse at 10 mg/kg, po by LC/MS-MS analysis. The format is ADME, organism-based. Further details: route oral, dose 10 mg/kg. As to conditions: in vivo.
For data set [13], the system named is Mus musculus. The experiment in a line: Hepatoprotective activity in LPS/D-GalN-induced fulminant hepatic failure BALB/c mouse model assessed as inhibition of serum AST level at 200 mg/kg, IG once daily for 3 days. The class given is functional, organism-based. As to conditions: time 3.0 day.
A short description of data set [14]: Half life in BALB/c mouse at 10 mg/kg, po by LC/MS-MS analysis. The format is ADME, organism-based. The note with it: in vivo.
The nature of data set [15]: Half life in BALB/c mouse at 2 mg/kg, iv by LC/MS-MS analysis. The note with it: in vivo. The format is ADME, organism-based.
Data set [16] in a line: Bioavailability in BALB/c mouse at 10 mg/kg, po by LC/MS-MS analysis. The class given is ADME, organism-based. As to conditions: in vivo.
Data set [17] is described as follows: Tmax in BALB/c mouse at 2 mg/kg, iv by LC/MS-MS analysis. As to conditions: in vivo. The class given is ADME, organism-based.
For data set [18], the species on record is Homo sapiens. The experiment in a line: Effect on recombinant AMPK alpha2beta2gamma1 (unknown origin) phosphorylation.
Data set [19] can be described thus: Cmax in BALB/c mouse at 2 mg/kg, iv by LC/MS-MS analysis. The format is ADME, organism-based. As to conditions: in vivo. Further details: route intravenous, dose 2 mg/kg.
Data set [20] relates to Mus musculus. The experiment in a line: Antiinflammatory activity against LPS/D-GalN-induced fulminant hepatic failure BALB/c mouse model assessed as inhibition of IL-6 mRNA expression in liver at 200 mg/kg, IG once daily for 3 days by RT-PCR analysis. The format is functional, organism-based. The note with it: time 3.0 day.
A short description of data set [21]: Tmax in BALB/c mouse at 10 mg/kg, po by LC/MS-MS analysis. The class given is ADME, organism-based. As to conditions: in vivo.
A short description of data set [22]: AUC (0 to infinity) in BALB/c mouse at 10 mg/kg, po by LC/MS-MS analysis. Further details: route oral, time infinity, dose 10 mg/kg. The format is ADME, organism-based. As to conditions: in vivo.
Data set [23] is filed under the species Homo sapiens. The experiment in a line: Effect on recombinant AMPKalpha1beta1gamma1 (unknown origin) phosphorylation.
Data set [24] in a line: AUC (0 to t) in BALB/c mouse at 2 mg/kg, iv by LC/MS-MS analysis. The format is ADME, organism-based. Further details: dose 2 mg/kg. The note with it: in vivo.
The test system of data set [25] is THP-1. The experiment in a line: Antiinflammatory activity in human THP-1 cells assessed as reduction in LPS-induced IL6 secretion at 10 uM incubated for 12 hrs measured by ELISA. The class given is functional, cell-based. Background: In an ELISA, binding on a coated surface is turned into a signal by an enzyme label.
The nature of data set [26]: AUC (0 to t) in BALB/c mouse at 10 mg/kg, po by LC/MS-MS analysis. The note with it: in vivo. The format is ADME, organism-based. Further details: dose 10 mg/kg.
Data set [27] concerns Mus musculus. The experiment in a line: Antiinflammatory activity against LPS/D-GalN-induced fulminant hepatic failure BALB/c mouse model assessed as inhibition of TNFalpha mRNA expression in liver at 200 mg/kg, IG once daily for 3 days by RT-PCR analysis. As to conditions: time 3.0 day. The class given is functional, organism-based.
Data set [28] is described as follows: Metabolic stability in mouse liver microsomes assessed as half life in presence of NADPH by LC-MS analysis. The class given is ADME, Microsome. For orientation: Liver microsomes are a subcellular fraction often used to study metabolism.
Data set [29] relates to THP-1. The experiment in a line: Antiinflammatory activity in human THP-1 cells assessed as reduction in LPS-induced TNF alpha secretion at 10 uM incubated for 12 hrs measured by ELISA. The class given is functional, cell-based.
The test system of data set [30] is Mus musculus. Put plainly: Hepatoprotective activity in LPS/D-GalN-induced fulminant hepatic failure BALB/c mouse model assessed as inhibition of serum ALT level at 200 mg/kg, IG once daily for 3 days. The class given is functional, organism-based. As to conditions: time 3.0 day.
The nature of data set [31]: Metabolic stability in human liver microsomes assessed as half life in presence of NADPH by LC-MS analysis. The class given is ADME, Microsome.
A short description of data set [32]: AUC (0 to infinity) in BALB/c mouse at 2 mg/kg, iv by LC/MS-MS analysis. The class given is ADME, organism-based. The note with it: in vivo. Further details: route intravenous, time infinity, dose 2 mg/kg.

The source made the active and inactive calls.

Consider `CC1(C)CC[C@]2(C(=O)O)CC[C@]3(C)C(=C2C1)CC[C@@H]1[C@@]2(C)CC[C@H](O)C(C)(C)[C@@H]2CC[C@]13C`, for which the Activity result in data set [1] was “Tde”; in data set [2], “Dose-dependent effect”; in data set [3], “Tde”; in [4], “Tde”; in [5], “Dose-dependent effect”; in data set [6], “Dose-dependent effect”. Further, the Activity result with THP-1 [7] was “Non-Toxic”; in data set [9], “Tde”; in data set [10], “Dose-dependent effect”. The result in data set [8] was Active.
Turning to `CC1(C)CC[C@]2(C(=O)O)CC[C@]3(C)C(=C2C1)CC[C@@H]1[C@@]2(C)CC[C@H](O[C@@H]4OC[C@H](O)[C@H](O)[C@H]4O)C(C)(C)[C@@H]2CC[C@]13C`, the result in the data set with Mus musculus [11], with Mus musculus [13], in the data set on Mus musculus [20], in the data set on THP-1 [25], in the data set with Mus musculus [27] and in the data set with THP-1 [29] was Active. Besides, the result with Mus musculus [30] was Active. The Cmax came to 1840 ng/mL in data set [12] and 4410 ng/mL in data set [19]. The half-life in data set [14] is 21 min; in [15], 21 min; in data set [28] it was greater than 120 min; in data set [31], greater than 120 min. For the same molecule, the bioavailability in [16] amounted to 24.7%. Further, the Tmax in data set [17] amounted to 4.8 min; in [21], 25.2 min. Besides, the result in the data set listed under Homo sapiens [18] and in the data set filed under Homo sapiens [23] was inactive. Also, the Activity result in the data set with THP-1 [7] is given as “Non-Toxic”. The AUC(0-inf) in data set [22] was 1690 ng·h/mL; in data set [32], 1360 ng·h/mL. The AUC(0-t) in [24] turned out to be 1350 ng·h/mL; in data set [26] it was 1670 ng·h/mL.
